Experimental data as given in patent publication US7396849B2, “4-(Condensed cyclicmethyl)-imidazole-2-thiones acting as α2 adrenergic agonists” (Allergan, Inc., priority 2004, dated 2008).

Assays:
[1] = molecular target: T1, alpha2B adrenergic receptors (Homo sapiens, UniProt P18089); assay: RSAT assay (Receptor Selection and Amplification Technology), alpha2B; type: cell-based; conditions: NIH-3T3 cells, ratio of maximal effect to that of standard full agonist brimonidine, NA = not active below 10 micromolar
T1 construct: expressed in transfected cells; host or cells: NIH-3T3 cells
T1 sequence (P18089 1-450): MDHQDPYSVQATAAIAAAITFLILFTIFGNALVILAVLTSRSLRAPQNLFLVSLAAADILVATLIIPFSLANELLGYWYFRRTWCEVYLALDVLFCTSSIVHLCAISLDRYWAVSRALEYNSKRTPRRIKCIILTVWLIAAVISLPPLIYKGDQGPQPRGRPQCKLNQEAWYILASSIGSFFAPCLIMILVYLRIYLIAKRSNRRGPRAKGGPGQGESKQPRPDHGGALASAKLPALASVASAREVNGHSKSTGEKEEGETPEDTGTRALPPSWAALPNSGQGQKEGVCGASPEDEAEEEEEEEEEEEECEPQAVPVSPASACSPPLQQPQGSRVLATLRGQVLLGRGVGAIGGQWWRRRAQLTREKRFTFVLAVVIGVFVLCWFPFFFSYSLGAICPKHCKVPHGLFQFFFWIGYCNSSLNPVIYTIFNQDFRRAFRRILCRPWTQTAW
Source text: The imidazole-2-thione compounds of the invention are agonists of alpha2 adrenergic receptors. Many compounds of the invention are specific or selective agonists of alpha2B and/or to a lesser extent alpha2C adrenergic receptors, in preference over alpha2A adrenergic receptors. […] 76, pp. 308-311 (incorporated herein by reference) and is also described below. Another reference pertinent to this assay is Conklin et al. (1993) Nature 363:274-6, Receptor Selection and Amplification Technology (RSAT) assay, also incorporated herein by reference.
The RSAT assay measures a receptor-mediated loss of contact inhibition that results in selective proliferation of receptor-containing cells in a mixed population of confluent cells. The increase in cell number is assessed with an appropriate transfected marker gene such as β-galactosidase, the activity of which can be easily measured in a 96-well format. Receptors that activate the G protein, Gq, elicit this response. Alpha2 receptors, which normally couple to Gi, activate the RSAT response when coexpressed with a hybrid Gq protein that has a Gi receptor recognition domain, called Gq/i5.
NIH-3T3 cells are plated at a density of 2×10^6 cells in 15 cm dishes and maintained in Dulbecco's modified Eagle's medium supplemented with 10% calf serum. One day later, cells are cotransfected by calcium phosphate precipitation with mammalian expression plasmids encoding p-SV-β-galactosidase (5-10 μg), receptor (1-2 μg) and G protein (1-2 μg). 40 μg salmon sperm DNA may also be included in the transfection mixture. Fresh media is added on the following day and 1-2 days later, cells are harvested and frozen in 50 assay aliquots. Cells are thawed and 100 μl added to 100 μl aliquots of various concentrations of drugs in triplicate in 96-well dishes. Incubations continue 72-96 hr at 37° C. After washing with phosphate-buffered saline, β-galactosidase enzyme activity is determined by adding 200 μl of the chromogenic substrate (consisting of 3.5 mM o-nitrophenyl-β-D-galactopyranoside and 0.5% nonidet P-40 in phosphate buffered saline), incubating overnight at 30° C. and measuring optical density at 420 nm. The absorbance is a measure of enzyme activity, which depends on cell number and reflects a receptor-mediated cell proliferation. The efficacy or intrinsic activity is calculated as a ratio of the maximal effect of the drug to the maximal effect of a standard full agonist for each receptor subtype. Brimonidine, also called UK14304, the chemical structure of which is shown below, is used as the standard agonist for the alpha2A, alpha2B and alpha2C receptors.
The results of the RSAT assay with several exemplary compounds of the invention are disclosed in Table 1 above together with the chemical formulas of these examplary compounds. NA stands for “not active” at cohcentrations less than 10 micromolar.

[2] = test system: Chung Model of Neuropathic Pain; assay: Chung model of neuropathic pain (tactile allodynia, von Frey hairs); type: in vivo, rats; conditions: 30 min following drug administration
Source text: A model in accordance with Kim and Chung 1992, Pain […], pp 355-363 (Chung model), for chronic pain (in particular peripheral neuropathy) involves the surgical ligation of the L5 (and optionally the L6) spinal nerves on one side in experimental animals. Rats recovering from the surgery gain weight and display a level of general activity similar to that of normal rats. However, these rats develop abnormalities of the foot, wherein the hindpaw is moderately everted and the toes are held together. More importantly, the hindpaw on the side affected by the surgery appears to become sensitive to pain from low-threshold mechanical stimuli, such as that producing a faint sensation of touch in a human, within about 1 week following surgery. This sensitivity to normally non-painful touch is called “tactile allodynia” and lasts for at least two months. The response includes lifting the affected hindpaw to escape from the stimulus, licking the paw and holding it in the air for many seconds. None of these responses is normally seen in the control group.
Rats are anesthetized before surgery. The surgical site is shaved and prepared either with betadine or Novacaine. Incision is made from the thoracic vertebra XIII down toward the sacrum. Muscle tissue is separated from the spinal vertebra (left side) at the L4-S2 levels. The L6 vertebra is located and the transverse process is carefully removed with a small rongeur to expose the L4-L6 spinal nerves. The L5 and L6 spinal nerves are isolated and tightly ligated with 6-0 silk thread. The same procedure is done on the right side as a control, except no ligation of the spinal nerves is performed.
A complete hemostasis is confirmed, then the wounds are sutured. A small amount of antibiotic ointment is applied to the incised area, and the rat is transferred to the recovery plastic cage under a regulated heat-temperature lamp. On the day of the experiment, at least seven days after the surgery, typically six rats per test group are administered the test drugs by intraperitoneal (i.p.) injection or oral gavage. […], the compounds are formulated in d H2O and given in a volume of 1 ml/kg body weight using an 18-gauge, 3 inch gavage needle that is slowly inserted through the esophagus into the stomach.
Tactile allodynia is measured prior to and 30 minutes after drug administration using von Frey hairs that are a series of fine hairs with incremental differences in stiffness. Rats are placed in a plastic cage with a wire mesh bottom and allowed to acclimate for approximately 30 minutes. The von Frey hairs are applied perpendicularly through the mesh to the mid-plantar region of the rats' hindpaw with sufficient force to cause slight buckling and held for 6-8 seconds. The applied force has been calculated to range from 0.41 to 15.1 grams. If the paw is sharply withdrawn, it is considered a positive response. A normal animal will not respond to stimuli in this range, but a surgically ligated paw will be withdrawn in response to a 1-2 gram hair. The 50% paw withdrawal threshold is determined using the method of Dixon, W. J., Ann. Rev. Pharmacol. Toxicol. 20:441-462 (1980) hereby incorporated by reference. The post-drug threshold is compared to the pre-drug threshold and the percent reversal of tactile sensitivity is calculated based on a normal threshold of 15.1 grams.
All measurements 30 min following drug administration. p value<0.001 compared to pretreatment values.

Sprague-Dawley rats = assay: Sedative activity (exploratory behavior after i.p. injection); type: in vivo; conditions: intraperitoneally, up to a dose of 1 mg/kg
Protocol: To test sedation, six male Sprague-Dawley rats are given up to 3 mg/kg of the test compound in a saline or DMSO vehicle by intraperitoneal injection (i.p.). Sedation is graded 30 minutes following administration of the drug by monitoring locomotor skills as follows.
The Sprague-Dawley rats are weighed and 1 ml/kg body weight of an appropriate concentration (ie. 3 mg/ml for a final dose of 3 mg/kg) drug solution is injected intraperitoneally. Typically the test compound is formulated in approximately 10 to 50% DMSO. The results are compared to controls that are injected with 1 ml/kg saline or 10 to 50% DMSO. Rat activity is then determined 30 minutes after injection of the drug solution. Rats are placed in a dark covered chamber and a digicom analyzer (Omnitech Electronic) quantitates their exploratory behavior for a five-minute period. The machine records each time the rat interrupts an array of 32 photoelectric beams in the X and Y orientation.
Effects on Cardiovascular System

| SMILES | Intrinsic Activity Alpha 2B [1] | % Pain Reversal ± SEM ([2]; 10 μg/kg i.p.) [%] | % Pain Reversal ± SEM ([2]; 30 μg/kg i.p.) [%] | % Pain Reversal ± SEM ([2]; 30 μg/kg p.o.) [%] | % Pain Reversal ± SEM ([2]; 300 μg/kg i.p.) [%] | sedative effect (Sprague-Dawley rats) | % Pain Reversal ± SEM ([2]; 3 μg/kg p.o.) [%] | % Pain Reversal ± SEM ([2]; 10 μg/kg p.o.) [%] | % Pain Reversal ± SEM ([2]; 100 μg/kg p.o.) [%] |
| --- | --- | --- | --- | --- | --- | --- | --- | --- | --- |
| CC(c1c[nH]c(=S)[nH]1)c1cccc2ncccc12 (racemic) [Compound 7, 4-(1-quinolin-5-yl-ethyl)-1,3-dihydro-imidazole-2-thione] | 0.90 | 2.9 ± 0.7 | 65.8 ± 6.1 | 77.0 ± 5.1 | 77.7 ± 7.2 | no sedative effect | – | – | – |
| CC(c1c[nH]c(=S)[nH]1)c1cccc2ncccc12 (single isomer, unassigned; (-)) [Compound 15, (−)-4-(1-quinolin-5-yl-ethyl)-1,3-dihydro-imidazole-2-thione] | 0.89 | – | – | 82.0 ± 6.2 | – | no sedative effect | 58.0 ± 5.3 | 78.0 ± 4.6 | 81.0 ± 8.1 |
